Structures are written as SMILES.

In patent US9828368B2 (MERCK SHARP & DOHME CORP., priority 2013, dated 2017) one finds IC50 data, which are given here for 23 compounds.

One experiment addresses hOX1R (Homo sapiens, UniProt O43613). Description: FLIPR Ca2+ flux assay, hOX1R. It is filed as cell-based. The conditions noted are these: CHO cells; agonist 70 pM Ala-6,12 orexin-A; rat orexin-1 receptor; read-out: hOX1R FLIPR IC50. (In general: Calcium assays in cells follow changes in intracellular calcium, usually with a dye or a luminescent sensor.)
A further experiment addresses human orexin-2 receptor (Homo sapiens (Human), UniProt O43614). Nature of the experiment: FLIPR Ca2+ flux assay, hOX2R. It counts as cell-based. The conditions noted are these: CHO cells expressing human orexin-2 receptor; agonist 70 pM Ala-6,12 orexin-A. The procedure:
In a typical experiment the OX1 and OX2 receptor antagonistic activity of the compounds of the present invention was determined in accordance with the following experimental method. For intracellular calcium measurements, Chinese hamster ovary (CHO) cells expressing the rat orexin-1 receptor or the human orexin-2 receptor, are grown in Iscove's modified DMEM containing 2 mM L-glutamine, […], 1% hypoxanthine-thymidine supplement, 100 U/ml penicillin, 100 μg/ml streptomycin and 10% heat-inactivated fetal calf serum (FCS). The cells are seeded at 20,000 cells/well into Becton-Dickinson black 384-well clear bottom sterile plates coated with poly-D-lysine. All reagents were from GIBCO-Invitrogen Corp. The seeded plates are incubated overnight at 37° C. and 5% CO2. Ala-6,12 human orexin-A as the agonist is prepared as a 1 mM stock solution in 1% bovine serum albumin (BSA) and diluted in assay buffer (HBSS containing 20 mM HEPES, 0.1% BSA and 2.5 mM probenecid, pH7.4) for use in the assay at a final concentration of 70 pM. Test compounds are prepared as 10 mM stock solution in DMSO, then diluted in 384-well plates, first in DMSO, then assay buffer. On the day of the assay, cells are washed 3 times with 100 μl assay buffer and then incubated for 60 min (37° C., 5% CO2) in 60 μl assay buffer containing 1 μM Fluo-4AM ester, 0.02% pluronic acid, and 1% BSA. The dye loading solution is then aspirated and cells are washed 3 times with 100 μl assay buffer. 30 μl of that same buffer is left in each well. Within the Fluorescent Imaging Plate Reader (FLIPR, Molecular Devices), test compounds are added to the plate in a volume of 25 μl, incubated for 5 min and finally 25 μl of agonist is added. Fluorescence is measured for each well at 1 second intervals for 5 minutes and the height of each fluorescence peak is compared to the height of the fluorescence peak induced by 70 pM Ala-6,12 orexin-A with buffer in place of antagonist. […] The intrinsic orexin receptor antagonist activity of a compound which may be used in the present invention may be determined by these assays.

Chain of human orexin-2 receptor (O43614 whole entry): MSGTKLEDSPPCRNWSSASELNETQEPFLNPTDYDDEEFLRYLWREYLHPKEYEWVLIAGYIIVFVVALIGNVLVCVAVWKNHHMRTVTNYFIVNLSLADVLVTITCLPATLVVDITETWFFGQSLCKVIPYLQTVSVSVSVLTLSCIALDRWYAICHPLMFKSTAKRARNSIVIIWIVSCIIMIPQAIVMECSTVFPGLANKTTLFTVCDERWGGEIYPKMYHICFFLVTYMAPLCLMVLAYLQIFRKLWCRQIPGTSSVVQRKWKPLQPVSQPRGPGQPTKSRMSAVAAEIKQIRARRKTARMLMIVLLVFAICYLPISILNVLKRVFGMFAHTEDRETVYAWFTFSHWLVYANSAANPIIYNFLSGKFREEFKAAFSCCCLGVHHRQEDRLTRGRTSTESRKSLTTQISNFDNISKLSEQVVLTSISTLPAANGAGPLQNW

Take `CCOc1ncccc1C(=O)N1C[C@H](c2nc(C(C)(C)O)c(C)o2)CC[C@H]1C` [Example 22, (2-Ethoxypyridin-3-yl)((2R,5R)-5-(4-(2-hydroxypropan-2-yl)-5-methyloxazol-2-yl)-2-methylpiperidin-1-yl)methanone]: the values for the IC50 at hOX1R and on human orexin-2 receptor were more than 10000 nM and 297 nM, respectively.

For `Cc1oc([C@@H]2CC[C@@H](C)N(C(=O)c3cccc4ccnn34)C2)nc1C(C)(C)O` [Example 23, ((2R,5R)-5-(4-(2-Hydroxypropan-2-yl)-5-methyloxazol-2-y1)-2-methylpiperidin-1-yl)(pyrazolo[1,5-a]pyridin-7-yl)methanone], the values for the IC50 at hOX1R and on human orexin-2 receptor were more than 10000 nM and 110 nM, respectively.

In the case of `Cc1oc([C@@H]2CC[C@@H](C)N(C(=O)c3ccccc3-n3ncnn3)C2)nc1C(C)(C)O` [Example 24, (2-(2H-Tetrazol-2-yl)phenyl)((2R,5R)-5-(4-(2-hydroxypropan-2-yl)-5-methyloxazol-2-yl)-2-methylpiperidin-1-yl)methanone], the figures for the IC50 at hOX1R and at human orexin-2 receptor were 3840 nM and 13.5 nM, respectively.

Take `Cc1oc([C@@H]2CC[C@@H](C)N(C(=O)c3ccsc3-n3nccn3)C2)nc1C(C)(C)O` [Example 25, (2-(2H-1,2,3-Triazol-2-yl)thiophen-3-yl)((2R,5R)-5-(4-(2-hydroxypropan-2-yl)-5-methyloxazol-2-yl)-2-methylpiperidin-1-yl)methanone]: the IC50 amounted to 1650 nM at hOX1R and 10.7 nM on human orexin-2 receptor.

Regarding `Cc1oc([C@@H]2CC[C@@H](C)N(C(=O)c3ccsc3-c3ncccn3)C2)nc1C(C)(C)O` [Example 26, ((2R, 5R)-5-(4-(2-Hydroxypropan-2-yl)-5-methyloxazol-2-yl)-2-methylpiperidin-1-yl)(2-(pyrimidin-2-yl)thiophen-3-yl)methanone], the IC50 stood at 1360 nM on hOX1R and 42 nM at human orexin-2 receptor.

Take `Cc1oc([C@@H]2CC[C@@H](C)N(C(=O)c3ccccc3OC(F)(F)F)C2)nc1C(C)(C)O` [Example 28, ((2R,5R)-5-(4-(2-Hydroxypropan-2-yl)-5-methyloxazol-2-yl)-2-methylpiperidin-l-yl)(2-(trifluoromethoxy)phenyl)methanone]: the figures for the IC50 on hOX1R and at human orexin-2 receptor were 1400 nM and 14.1 nM, respectively.

Regarding `Cc1oc([C@@H]2CC[C@@H](C)N(C(=O)c3ccccc3OC(C)C)C2)nc1C(C)(C)O` [Example 29, ((2R,5R)-5-(4-(2-Hydroxypropan-2-yl)-5-methyloxazol-2-yl)-2-methylpiperidin-1-yl)(2-isopropoxyphenyl)methanone], the IC50 is 2000 nM on hOX1R and 20.4 nM on human orexin-2 receptor.

As for `Cc1oc([C@@H]2CC[C@@H](C)N(C(=O)c3nc(Cl)sc3C(C)C)C2)nc1C(C)(C)O` [Example 32, (2-Chloro-5-isopropylthiazol-4-yl)((2R,5R)-5-(4-(2-hydroxypropan-2-yl)-5-methyloxazol-2-yl)-2-methylpiperidin-1-yl)methanone], the IC50 at hOX1R is more than 10000 nM; on human orexin-2 receptor it was 160 nM.

Regarding `COC(=O)c1ccccc1C(=O)N1C[C@H](c2nc(C(C)(C)O)c(C)o2)CC[C@H]1C` [Example 33, Methyl 2-((2R,5R)-5-(4-(2-hydroxypropan-2-yl)-5-methyloxazol-2-yl)-2-methylpiperidine-1-carbonyl)benzoate], the IC50 on hOX1R was found to be 9980 nM; on human orexin-2 receptor it was 23 nM.

For the compound `Cc1oc([C@@H]2CC[C@@H](C)N(C(=O)c3ccccc3-c3ncccn3)C2)nc1C(C)(C)O` [Example 34, ((2R,5R)-5-(4-(2-Hydroxypropan-2-yl)-5-methyloxazol-2-yl)-2-methylpiperidin-1-yl)(2-(pyrimidin-2-yl)phenyl)methanone], the IC50 at hOX1R came to 2200 nM; on human orexin-2 receptor it was 56 nM.

On to `Cc1oc([C@@H]2CC[C@@H](C)N(C(=O)c3ccc(F)cc3-n3nccn3)C2)nc1C(C)(C)O` [Example 37], for which the figures for the IC50 at hOX1R and on human orexin-2 receptor were 1350 nM and 19.1 nM, respectively.

In the case of `Cc1oc([C@@H]2CC[C@@H](C)N(C(=O)c3cccnc3OCC(F)F)C2)nc1C(C)(C)O` [Example 38, (2-(2,2-Difluoroethoxy)pyridin-3-yl)((2R,5R)-5-(4-(2-hydroxypropan-2-yl)-5-methyloxazol-2-yl)-2-methylpiperidin-1-yl)methanone], the IC50 on hOX1R was approximately 6400 nM; at human orexin-2 receptor it was 14.1 nM.

On to `Cc1oc([C@@H]2CC[C@@H](C)N(C(=O)c3cccnc3OCC(F)(F)F)C2)nc1C(C)(C)O` [Example 39, ((2R,5R)-5-(4-(2-Hydroxypropan-2-yl)-5-methyloxazol-2-y1)-2-methylpiperidin-1-yl)(2-(2,2,2-trifluoroethoxy)pyridin-3-yl)methanone], for which the IC50 was determined as 2130 nM at hOX1R and 17.5 nM at human orexin-2 receptor.

In the case of `Cc1oc([C@@H]2CC[C@@H](C)N(C(=O)c3cccnc3OC(C)C)C2)nc1C(C)(C)O` [Example 40, ((2R,5R)-5-(4-(2-Hydroxypropan-2-yl)-5-methyloxazol-2-yl)-2-methylpiperidin-1-yl)(2-isopropoxypyridin-3-yl)methanone], the IC50 at hOX1R was more than 10000 nM; at human orexin-2 receptor, 29.5 nM.

Take `COCCc1ccccc1C(=O)N1C[C@H](c2nc(C(C)(C)O)c(C)o2)CC[C@H]1C` [Example 41, ((2R,5R)-5-(4-(2-Hydroxypropan-2-yl)-5-methyloxazol-2-yl)-2-methylpiperidin-1-yl)(2-(2-methoxyethyl)phenyl)methanone]: the IC50 on hOX1R is more than 10000 nM; on human orexin-2 receptor it was 57 nM.

For `Cc1oc([C@@H]2CC[C@@H](C)N(C(=O)c3cnsc3-n3nccn3)C2)nc1C(C)(C)O` [Example 42, (5-(2H-1,2,3-Triazol-2-yl)isothiazol-4-yl)((2R,5R)-5-(4-(2-hydroxypropan-2-yl)-5-methyloxazol-2-yl)-2-methylpiperidin-1-yl)methanone], the IC50 is more than 10000 nM on hOX1R and 114 nM on human orexin-2 receptor.

As to `Cc1cc(C(=O)N2C[C@H](c3nc(C(C)(C)O)c(C)o3)CC[C@H]2C)c(-n2nccn2)s1` [Example 43, ((2R,5R)-5-(4-(2-Hydroxypropan-2-yl)-5-methyloxazol-2-yl)-2-methylpiperidin-1-yl)(5-methyl-2-(2H-1,2,3-triazol-2-yl)thiophen-3-yl)methanone], the IC50 on hOX1R is 1190 nM; at human orexin-2 receptor, 30 nM.

For `CC[C@@](C)(O)c1nc([C@@H]2CC[C@@H](C)N(C(=O)c3ccccc3-n3nccn3)C2)oc1C` [Example 44, (2-(2H-1,2,3-Triazol-2-yl)phenyl)((2R,5R)-5-(4-((R)-2-hydroxybutan-2-yl)-5-methyloxazol-2-yl)-2-methylpiperidin-1-yl)methanone], the IC50 stood at 790 nM at hOX1R and 31 nM on human orexin-2 receptor.

Turning to `CC[C@](C)(O)c1nc([C@@H]2CC[C@@H](C)N(C(=O)c3ccccc3-n3nccn3)C2)oc1C` [Example 45, (2-(2H-1,2,3-triazol-2-yl)phenyl)((2R,5R)-5-(4-((S)-2-hydroxybutan-2-yl)-5-methyloxazol-2-yl)-2-methylpiperidin-1-yl)methanone], the IC50 at hOX1R came to 1220 nM; at human orexin-2 receptor, 24 nM.

Take `CC[C@](C)(O)c1nc([C@@H]2CC[C@@H](C)N(C(=O)c3cscc3-n3nccn3)C2)oc1C` [Example 46, (4-(2H-1,2,3-triazol-2-yl)thiophen-3-yl)((2R,5R)-5-(4-((S)-2-hydroxybutan-2-yl)-5-methyloxazol-2-yl)-2-methylpiperidin-1-yl)methanone]: the IC50 is 4700 nM at hOX1R and 37 nM at human orexin-2 receptor.

As for `CC[C@@](C)(O)c1nc([C@@H]2CC[C@@H](C)N(C(=O)c3cscc3-n3nccn3)C2)oc1C` [Example 47, (4-(2H-1,2,3-triazol-2-yl)thiophen-3-yl)((2R,5R)-5-(4-((R)-2-hydroxybutan-2-yl)-5-methyloxazol-2-yl)-2-methylpiperidin-1-yl)methanone], the values for the IC50 at hOX1R and on human orexin-2 receptor were 9770 nM and 18 nM, respectively.

As for `C[C@@H]1CC[C@@H](c2nc(C(C)(C)O)c(Cl)o2)CN1C(=O)c1ccccc1-n1nccn1` [Example 52, (2-(2H-1,2,3-Triazol-2-yl)phenyl)((2R,5R)-5-(5-chloro-4-(2-hydroxypropan-2-yl)oxazol-2-yl)-2-methylpiperidin-1-yl)methanone], the IC50 turned out to be 3160 nM on hOX1R and 265 nM on human orexin-2 receptor.

As for `C[C@@H]1CC[C@@H](c2nc(C(C)(C)O)c(C(F)F)o2)CN1C(=O)c1ccccc1-n1nccn1` [Example 53, (2-(2H-1,2,3-Triazol-2-yl)phenyl)((2R,5R)-5-(5-(difluoromethyl)-4-(2-hydroxypropan-2-yl)oxazol-2-yl)-2-methylpiperidin-1-yl)methanone], the IC50 on hOX1R was found to be 316 nM; on human orexin-2 receptor it was 43 nM.

The term IC50 denotes the concentration at which inhibition is half-maximal.
